Assay [1] concerns extracellular Aβ1-40 accumulation, SH-SY5Y cells. Briefly: Effect of each test sample on extracellular Aβ1-40 accumulation (Human Aβ1-40 immunoassay of the medium). Type of assay: cell-based. How it is done:
Wild-type human neuroblastoma cells (SH-SY5Y) were cultured in Eagle's Minimum essential Medium (EMEM)/Ham's F12 medium (1:1 mixture) (containing 10% FBS, 10 units/ml penicillin, 10 μg/ml Streptomycin). Wild-type mouse neuroblastoma Neuro-2a cells were cultured in minimum essential medium (MEM) (containing 10% FBS, 10 units/ml penicillin, 10 μg/ml Streptomycin).
The medium of the wild-type human neuroblastoma SH-SY5Y cells in Example 1 were switched into chemical defined medium (EMEM/F12 medium (Cat. No. 12500-062), Hepes 5 mM, Glucose 0.6%, NaHCO3 3 mM, Glutamine 2.5 mM, Insulin 25 μg/ml, Transferin 100 μg/ml, Progestrone 20 nM, Putrescine 60 μM, Sodium selenite 30 nM, Heparin 2 μg/ml). Each well contained 1×10^5 SH-SY5Y cells in 300 μl of culture medium. Thirty minutes later, each well was treated with the test samples given in Table 1 respectively at a total concentration of 50 μg/ml for 24 hours. After that, the level of Aβ1-40 in the medium of each well was analyzed by Human Aβ1-40 immunoassay kits (Catalog #KHB3482 Invitrogen).
Human neuroblastoma SH-SY5Y cells cause extracellular accumulation of Aβ. […] The results were shown in mean ± standard deviation (SD) form. Significant difference between the Vehicle control group and the test sample-treated groups were indicated by * * * , P<0.001.

For the next assay, the target named is Human Aβ1-42 (Homo sapiens, UniProt P05067). As to the kind of experiment: Effect of each test sample on Aβ1-42 oligomerization (thioflavin T fluorescence). The format is biochemical. The conditions noted are these: 50 μg/ml, 4° C., 24 hours, thioflavin T fluorescence (FIG. 2). How it is done: Dried Human Aβ1-42 was taken out from the refrigerator and equilibrated to room temperature. Aβ1-42 was dissolved in 1,1,1,3,3,3-Hexa-fluro-2-propanol (HFIP) to a concentration of 1 mM, and was then placed at room temperature for one hour. The Aβ1-42/HFIP solution was aliquoted by Hamilton syringe, and was then dried under a stream of nitrogen gas, followed by storing at a temperature of −20° C. Aβ1-42 treated with HFIP was dissolved in PBS, and was vibration-incubated with treatment of each test sample at a concentration of 50 μg/ml and at 4° C. for 24 hours to prepare Aβ1-42 oligomers. The level of Aβ1-42 oligomerization was analyzed by thioflavin T fluorescence (Ex=450 nm, Em=482 nm). […] That is to say, these pharmaceutical compositions can be used to prevent or treat Aβ-associated diseases or conditions.

“Also recorded” adds a separate entry of the source.

Chain of Human Aβ1-42 (P05067 672-713 limits assumed): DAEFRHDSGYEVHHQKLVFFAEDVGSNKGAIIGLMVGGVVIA

For the compound `C[C@@H]1O[C@@H](O[C@@H]2[C@@H](O)[C@H](OCCc3ccc(O)c(O)c3)O[C@H](CO)[C@H]2OC(=O)/C=C/c2ccc(O)c(O)c2)[C@H](O)[C@H](O)[C@H]1O` [A, Acteoside], the “reduces the level of Aβ1-40 in the medium” value in assay [1] (total concentration of 50 μg/ml, 24 hours, based on Vehicle control group (FIG. 1)) was “about 10%”.

For the compound `C[C@@H]1O[C@@H](O[C@@H]2[C@@H](O)[C@H](OCCc3ccc(O)c(O)c3)O[C@H](COC(=O)/C=C/c3ccc(O)c(O)c3)[C@H]2O)[C@H](O)[C@H](O)[C@H]1O` [I, Isoacteoside], the “activity on reducing extracellular Aβ1-40 accumulation (in words)” value in assay [1] (total 50 μg/ml, 24 hours (FIG. 1)) is reported as “significant activity; also recorded: better activity”. Besides, on Human Aβ1-42, the “activity on inhibiting Aβ1-42 oligomerization (in words)” value is “better activity”.

For the origin of these results see patent publication US20150087606A1, “PHARMACEUTICAL COMPOSITION FOR PREVENTING OR TREATING AMYLOID BETA PEPTIDE-ASSOCIATED DISEASES OR CONDITIONS” (Sinphar Tian-Li Pharmaceutical Co., Ltd. (Hangzhou), priority 2011, published 2015).
